Drawing on patent US20240368122A1, “JAK2 INHIBITORS AND METHODS OF USE THEREOF” (RELAY THERAPEUTICS, INC., priority 2021, published 2024), this text covers Kd and IC50 for 15 compounds.

The target in test [1] is T1, JAK2 JH2 WT (V536-D812) [W659A, W777A, F794H solubilizing mutations] (Homo sapiens, UniProt O60674, F794H/W659A/W777A).
T1 construct: **JAK2 JH2 WT (V536-D812) [W659A, W777A, F794H solubilizing mutations]; C-thrombin-avi-His6; thrombin cleavage site (C); His6 (C); purchased Biortus
Nature of the test: Surface Plasmon Resonance (SPR) binding assay, JAK2 JH2 domain. In outline:
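Kinetics came from 1:1 fits of single-cycle runs at 20 °C: four 3-fold dilutions from 5 uM for JH1 or 500 nM for JH2, 60 s association, and 300 s or 1200 s dissociation respectively. Protein was freshly captured per compound in the presence of 10 uM stabilizer compound, with running buffer of pH 7.5 HEPES/NaCl/glycerol/DTT plus 2% DMSO.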

Test [2] concerns TF1 JAK2 V617F STAT3 reporter. The test is described as follows: Cellular TF1 STAT3 assay (luciferase reporter), JAK2 V617F. The settings on record: read-out: Cell PD-TF1 JAK2 V617F STAT3 (IC50). Type of test: cell-based. Put shortly: (§1)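 Compounds were dispensed as 1000× DMSO stocks (10 mM top, 1:3 steps), then V617F JAK2 TF1 cells carrying a STAT3 or STAT5 luciferase reporter were added. After 18-20 h at 37 °C, ONE-glo reagent was added and luminescence measured.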

The subject of test [3] is TF1 JAK2 V617F STAT5 reporter. Nature of the test: Cellular TF1 STAT5 assay (luciferase reporter), JAK2 V617F. The note with it: read-out: Cell PD TF1 V617F STAT5 (IC50). It counts as cell-based. In outline:
as §1
Background: Reporter assays use an easily measured gene product as a stand-in for the process of interest.

Setting [4] is: Homo sapiens, TF-1, TF1 cells, JAK2 V617F.

Read-outs that look alike come from different tables or passages of the source.

T1 sequence (O60674 536-812 W659A/W777A/F794H): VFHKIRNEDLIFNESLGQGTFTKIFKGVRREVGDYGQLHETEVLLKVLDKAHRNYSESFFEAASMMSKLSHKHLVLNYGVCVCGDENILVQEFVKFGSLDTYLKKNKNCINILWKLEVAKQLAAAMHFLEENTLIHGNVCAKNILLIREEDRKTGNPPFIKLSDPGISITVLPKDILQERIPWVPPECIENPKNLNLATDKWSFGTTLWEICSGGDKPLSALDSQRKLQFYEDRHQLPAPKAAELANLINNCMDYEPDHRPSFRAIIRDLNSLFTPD

As usually defined, the Kd is the equilibrium constant for the complex coming apart. A high value points to a looser complex. As usually defined, the IC50 is the concentration that gives 50% inhibition. `[2H]C([2H])([2H])NC(=O)c1nnc(NC(=O)C2CC2)cc1Nc1cccc(-c2cnc(C(=O)N(C)Cc3ccn(C)n3)nc2)c1OC` [Compound 62] returned a Kd in test [1] (SPR, JAK2 JH2 domain) of 0.01 to 10 nM. In addition, the IC50 in test [2] (TF1 JAK2 V617F) and in test [3] (TF1 JAK2 V617F) was 500 to 5000 nM each time.
Turning to `CNC(=O)c1nnc(NC(=O)C2CC2)cc1Nc1cccc(-c2ccc(C(=O)N(C)Cc3cc(C#N)ccn3)c(F)c2)c1OC` [Compound 131], the Kd in test [1] (SPR, JAK2 JH2 domain) lay in the range of 0.01 to 10 nM. The IC50 in test [2] (TF1 JAK2 V617F) and in test [3] (TF1 JAK2 V617F) was 500 to 5000 nM in each case.
For `CNC(=O)c1nnc(NC(=O)C2CC2)cc1Nc1cccc(-c2ccc(C(=O)N(C)Cc3ccccc3C(F)(F)F)nc2)c1OC` [Compound 52], the Kd in test [1] (SPR, JAK2 JH2 domain) lay within 0.01 to 10 nM. The IC50 in test [2] (TF1 JAK2 V617F) and in test [3] (TF1 JAK2 V617F) was 500 to 5000 nM throughout.
In test [1], `CNC(=O)c1nnc(NC(=O)C2CC2)cc1Nc1cccc(-c2cnn([C@H]3C[C@H]([C@@H](OC)c4ccccn4)C3)c2)c1OC` (single isomer, unassigned) [Compound 346] had a Kd of 0.01 to 10 nM. Further, the IC50 in test [2] (setting [4]) and in test [3] (setting [4]) was 500 to 5000 nM throughout.
In turn, `CNC(=O)c1nnc(NC(=O)C2CC2)cc1Nc1ccc(Cl)c(-c2ccc(C(=O)N(C)Cc3ccn(C)n3)nc2)c1OC` [Compound 223] showed a Kd in test [1] of 0.01 to 10 nM. The figures for the IC50 in test [2] (setting [4]) and in test [3] (setting [4]) were 500 to 5000 nM and 50 to 500 nM, respectively.
Consider `CNC(=O)c1nnc(NC(=O)C2CC2)cc1Nc1cccc(-c2cnn(C3CN(Cc4cccc(C=O)n4)C3)c2)c1OC` [Compound 324], for which the Kd in test [1] lay within 0.01 to 10 nM. Moreover, the IC50 in test [2] (setting [4]) and in test [3] (setting [4]) was 50 to 500 nM throughout.
As for `CNC(=O)c1nnc(NC(=O)C2CC2)cc1Nc1cccc(-c2ccc(C(=O)N(Cc3cccn(C)c3=O)CC(F)F)nc2)c1OC` [Compound 16], in test [1] (SPR, JAK2 JH2 domain), the Kd was in the range of 0.01 to 10 nM. The IC50 in test [2] (TF1 JAK2 V617F) is 500 to 5000 nM; in test [3] (TF1 JAK2 V617F), 5000 to 100000 nM.
As for `CNC(=O)c1nnc(NC(=O)C2CC2)cc1Nc1cccc(-c2cn(C3CN(Cc4cccc(C#N)n4)[C@@H]3C)nn2)c1OC` (stereo in doubt) [Compound 237], in test [1], the Kd is 0.01 to 10 nM. Also, the IC50 in test [2] (setting [4]) and in test [3] (setting [4]) was 500 to 5000 nM throughout.
In turn, `CNC(=O)c1nnc(NC(=O)C2CC2)cc1Nc1cccc(-c2cnc(C(=O)N(C)Cc3cn(C)nc3C(F)(F)F)nc2)c1OC` [Compound 64] came in with a Kd in test [1] (SPR, JAK2 JH2 domain) of 0.01 to 10 nM. In addition, the IC50 in test [2] (TF1 JAK2 V617F) lay in the range of 500 to 5000 nM; in test [3] (TF1 JAK2 V617F) it was 50 to 500 nM.
Regarding `CNC(=O)c1nnc(NC(=O)C2CC2)cc1Nc1cccc(-c2ccc(C(=O)N(C)Cc3cc(C#N)ccn3)nc2OC)c1OC` [Compound 20], the Kd in test [1] (SPR, JAK2 JH2 domain) was in the range of 0.01 to 10 nM. The IC50 in test [2] (TF1 JAK2 V617F) and in test [3] (TF1 JAK2 V617F) was 500 to 5000 nM throughout.
As for `[2H]C([2H])(c1cccnn1)N1CC(n2cc(-c3cccc(Nc4cc(NC(=O)C5CC5)nnc4C(=O)NC)c3OC)cn2)C1` [Compound 408], the Kd in test [1] (SPR, JAK2 JH2 domain) was in the range of 0.01 to 10 nM. Moreover, the IC50 in test [2] (setting [4]) and in test [3] (setting [4]) was 50 to 500 nM in each case.
Take `CNC(=O)c1nnc(NC(=O)OC2CC2)cc1Nc1cccc(-c2cnn(C3CC(Oc4cccc(C#N)n4)C3)c2)c1OC` (mixture of isomers) [Compound 345]: in test [1], the Kd is 0.01 to 10 nM. The IC50 in test [2] (setting [4]) is 5000 to 100000 nM; in test [3] (setting [4]), 500 to 5000 nM.
As for `CNC(=O)c1nnc(NC(=O)C2CC2)cc1Nc1cccc(-c2ccc(C(=O)N(C)C[C@H]3CCS(=O)(=O)C3)nc2)c1OC` (single isomer, unassigned) [Compound 207], the Kd in test [1] was 0.01 to 10 nM. Moreover, the IC50 in test [2] (setting [4]) and in test [3] (setting [4]) was 5000 to 100000 nM throughout.
In test [1], `COc1c(Nc2cc(NC(=O)C3CC3)nnc2-c2ncc[nH]2)ccc(C)c1-c1ccc(C(=O)N(C)Cc2cn(C)nc2C)nc1` [Compound 376] displayed a Kd of 0.01 to 10 nM. Moreover, the IC50 in test [2] (setting [4]) and in test [3] (setting [4]) was 500 to 5000 nM throughout.
As for `CNC(=O)c1nnc(NC(=O)C2CC2)cc1Nc1cccc(-c2ccc(C(=O)N3CCc4cnn(C)c4C3)nc2)c1OC` [Compound 120], the Kd in test [1] (SPR, JAK2 JH2 domain) fell in the range of 0.01 to 10 nM. Also, the IC50 in test [2] (TF1 JAK2 V617F) and in test [3] (TF1 JAK2 V617F) was 5000 to 100000 nM in each case.
